{"source": "patent US6664285B1", "about": "“Use of cell membrane penetrating indigoid bisindole derivatives” (priority 1999, dated 2003)", "key": {"LXFL 529L cells": {"system": "LXFL 529L cells", "experiment": "Cellular uptake into LXFL 529L cells", "conditions": "for distribution cellular organelles / distribution cytosol / amount of substance within the cells: 2 hours incubation", "procedure": "The compounds of Examples 1, 6 and 8 and Comparative Examples 1 and 2 were investigated with respect to their ability to penetrate LXFL 529L cells having the passage numbers P23 to P39. The amounts of the substances taken up by the cells are given depending on the concentration of the substance within the incubation medium. The time of incubation was 2 hours in all of the experiments. Furthermore, the distribution of the substance which was taken up by the cells in the cytosol and the cellular organelles (particular) was estimated and is given in the intermediate column of Table 2. Tumor cell growth inhibition was determined by the sulfo-rhodamine B assay (SRB assay) according to Skehan et al., J. Natl. Cancer Institute 82, pages 1107-1112 (1990). Incubation was conducted for three days in serum containing medium. Tumor cell lines tested were a large-cell lung carcinoma xenograft line LXFL 529 L and the mammary carcinoma line MCF-7."}, "[1]": {"system": "large-cell lung carcinoma xenograft line LXFL 529 L", "experiment": "Tumor cell growth inhibition, sulforhodamine B (SRB) assay", "type": "cell-based, human", "conditions": "LXFL529L; three days incubation, serum containing medium"}, "[2]": {"system": "mammary carcinoma line MCF-7", "experiment": "Tumor cell growth inhibition, sulforhodamine B (SRB) assay", "type": "cell-based, human", "conditions": "MCF7; three days incubation, serum containing medium"}, "[3]": {"system": "LXFL529 (lung large-cell)", "experiment": "Colony-forming assay", "type": "cell-based, human"}, "MCF7X (mammary)": {"system": "MCF7X (mammary)", "experiment": "Colony-forming assay", "type": "cell-based, human", "conditions": "for IC50: read-out: IC50 colony formation"}, "OVXF1353 (ovarian)": {"system": "OVXF1353 (ovarian)", "experiment": "Colony-forming assay", "type": "cell-based, human", "procedure": "(§1) The anti-tumor activity of the compounds was evaluated via a colony-forming-assay as described e.g. by D. P. Berger et al. in Annals of Oncology 1, pages 333-341 (1 990), “The clonongenic assay with human tumor xenografts, evaluation, predictive values and application for drug screening”.\n(§2) The experiments were conducted using various tumor cell lines, in particular mammary carcinoma (MAXF), lung adenocarcinoma (LXFA), large-cell lung carcinoma (LXFL), small-cell lung carcinoma (LXFS), colon carcinoma (CXF), melanoma (MEXF), pancreatic carcinoma (PAXF), renal carcinoma (RXF), ovarian carcinoma (OVXF) and bladder carcinoma (BXF)."}, "PAXF736 (pancreatic)": {"system": "PAXF736 (pancreatic)", "experiment": "Colony-forming assay", "type": "cell-based, human", "conditions": "for IC50: read-out: IC50 colony formation"}, "[4]": {"system": "human tumor xenograft LXFL 529", "experiment": "In vivo testing in nude mice bearing subcutaneous tumor xenograft", "conditions": "for tumor growth (relative tumor volume) compared to the vehicle control (in words): LXFL 529/17, i.p., nude mice, FIG. 1", "procedure": "Compound of Examples 1, 4, 6, 8, 9 and 10 were subjected to in vivo testing in nude mice bearing subcutaneously growing human tumor xenograft LXFL 529. The indigoid bisindole derivatives were applied intraperitoneally to the animals in doses and according to the schedule as described in Table 4.\nThe experiments were run for 21 or 28 days. Anti-tumor activity was evaluated comparing the median tumor volume relative to control, expressed as %T/C, wherein T is the test group and C the vehicle control group. In Table 4, anti-tumor activity is given according to an activity rate scale."}, "[5]": {"conditions": "cited from earlier work"}, "HT29X (colon)": {"system": "HT29X (colon)", "experiment": "Colony-forming assay", "type": "cell-based, human", "conditions": "colon HT29X; for IC50: read-out: IC50 colony formation"}, "MEXF514 (melanoma)": {"system": "MEXF514 (melanoma)", "experiment": "Colony-forming assay", "type": "cell-based, human"}, "OVXF1352 (ovarian)": {"system": "OVXF1352 (ovarian)", "procedure": "as §1, §2"}, "[6]": {"conditions": "dosage of 100 mg/kg up to 300 mg/kg, FIG. 2 and FIG. 4", "source_text": "A reduction of the body weight of the tested mice of more then 20% by weight in general is interpreted as a toxic dose."}, "[7]": {"system": "LXFS650 (lung small-cell)", "experiment": "Colony-forming assay", "type": "cell-based, human"}, "CXF280 (colon)": {"system": "CXF280 (colon)", "experiment": "Colony-forming assay", "type": "cell-based, human"}, "MX1 (mammary)": {"system": "MX1 (mammary)", "experiment": "Colony-forming assay", "type": "cell-based, human"}, "BXF1299 (bladder)": {"system": "BXF1299 (bladder)", "experiment": "Colony-forming assay", "type": "cell-based, human"}, "[8]": {"conditions": "concentration of incubation 10 μM"}, "[9]": {"conditions": "concentration of incubation 20 μM"}, "[10]": {"conditions": "read-out: IC50 colony formation"}, "[11]": {"conditions": "Homo sapiens, read-out: IC50 colony formation"}}, "note": "Like-named read-outs stand apart in the source and are kept apart here."}
{"smiles": "O=C1Nc2ccccc2/C1=C1/Nc2ccccc2C1=O", "note": "[Example 1, Indirubin]", "values": [{"measurement": "uptake by the tumor cells (in words)", "setting": "LXFL 529L cells; LXFL 529L cells", "value": "taken up by the tumor cells"}, {"measurement": "distribution cellular organelles", "setting": "LXFL 529L cells; [8]", "value": "93 ± 5.7", "unit": "%"}, {"measurement": "distribution cytosol", "setting": "LXFL 529L cells; [8]", "value": "7 ± 5.7", "unit": "%"}, {"measurement": "distribution cellular organelles", "setting": "LXFL 529L cells; [9]", "value": "94 ± 1.4", "unit": "%"}, {"measurement": "distribution cytosol", "setting": "LXFL 529L cells; [9]", "value": "6 ± 1.4", "unit": "%"}, {"measurement": "IC50", "setting": "[1]", "value": "9.9 ± 0.1", "unit": "µM"}, {"measurement": "IC50", "setting": "[2]", "value": "4 ± 2", "unit": "µM"}, {"measurement": "IC70 colony formation", "setting": "[3]", "value": 35.6, "unit": "µM"}, {"measurement": "IC50", "setting": "[3]; [10]", "value": 25.3, "unit": "µM"}, {"measurement": "IC70 colony formation", "setting": "MCF7X (mammary)", "value": 6.0, "unit": "µM"}, {"measurement": "IC50", "setting": "MCF7X (mammary)", "value": 2, "unit": "µM"}, {"measurement": "IC70 colony formation", "setting": "OVXF1353 (ovarian)", "value": ">30", "unit": "µM"}, {"measurement": "IC50", "setting": "OVXF1353 (ovarian); [10]", "value": 12.3, "unit": "µM"}, {"measurement": "IC70 colony formation", "setting": "PAXF736 (pancreatic)", "value": ">30", "unit": "µM"}, {"measurement": "IC50", "setting": "PAXF736 (pancreatic)", "value": 5.4, "unit": "µM"}, {"measurement": "activity rating", "setting": "[4]; 100 mg/kg/day i.p., days 1-5, 8-9", "value": "+ (tumor inhibition T/C > 25-50%)"}, {"measurement": "activity rating", "setting": "[4]; 200 mg/kg/day i.p., days 1-5, 8-9", "value": "++ (tumor stasis T/C ≦ 25%)"}, {"measurement": "tumor growth (relative tumor volume) compared to the vehicle control (in words)", "setting": "[4]", "value": "significantly inhibited the tumor growth"}, {"measurement": "solubility in water (in words)", "setting": "[5]", "value": "dissolves only poorly in water"}]}
{"smiles": "Cc1ccc2c(c1)/C(=C1/Nc3ccccc3C1=O)C(=O)N2", "note": "[Example 6, 5-Methylindirubin]", "values": [{"measurement": "ability to penetrate the cellular membrane / uptake compared to indirubin (Example 1) (in words)", "setting": "LXFL 529L cells; LXFL 529L cells", "value": "substantially improved"}, {"measurement": "uptake by the tumor cells (in words)", "setting": "LXFL 529L cells; LXFL 529L cells", "value": "taken up by the tumor cells"}, {"measurement": "amount of substance within the cells", "setting": "LXFL 529L cells; [8]", "value": "0.52 ± 0.1"}, {"measurement": "distribution cellular organelles", "setting": "LXFL 529L cells; [8]", "value": "87 ± 0.7", "unit": "%"}, {"measurement": "distribution cytosol", "setting": "LXFL 529L cells; [8]", "value": "13 ± 0.7", "unit": "%"}, {"measurement": "amount of substance within the cells", "setting": "LXFL 529L cells; [9]", "value": "0.86 ± 0.22"}, {"measurement": "distribution cellular organelles", "setting": "LXFL 529L cells; [9]", "value": "94 ± 2.8", "unit": "%"}, {"measurement": "distribution cytosol", "setting": "LXFL 529L cells; [9]", "value": "6 ± 2.8", "unit": "%"}, {"measurement": "IC50", "setting": "[1]", "value": "7.5 ± 0.5", "unit": "µM"}, {"measurement": "IC50", "setting": "[2]", "value": "4.8 ± 0.5", "unit": "µM"}, {"measurement": "IC70 colony formation", "setting": "MCF7X (mammary)", "value": 1.2, "unit": "µM"}, {"measurement": "IC50", "setting": "MCF7X (mammary)", "value": "< 1", "unit": "µM"}, {"measurement": "IC70 colony formation", "setting": "PAXF736 (pancreatic)", "value": 27.5, "unit": "µM"}, {"measurement": "IC50", "setting": "PAXF736 (pancreatic)", "value": 15.4, "unit": "µM"}, {"measurement": "IC70 colony formation", "setting": "HT29X (colon)", "value": 14.4, "unit": "µM"}, {"measurement": "IC50", "setting": "HT29X (colon)", "value": "< 1", "unit": "µM"}, {"measurement": "IC70 colony formation", "setting": "MEXF514 (melanoma)", "value": 27.8, "unit": "µM"}, {"measurement": "IC50", "setting": "MEXF514 (melanoma); [10]", "value": 19.2, "unit": "µM"}, {"measurement": "IC70 colony formation", "setting": "OVXF1352 (ovarian)", "value": ">30", "unit": "µM"}, {"measurement": "IC50", "setting": "OVXF1352 (ovarian); [10]", "value": 1, "unit": "µM"}, {"measurement": "activity rating", "setting": "[4]; 100 mg/kg/day i.p., days 1-5, 8-12, 15, 17, 19, 22", "value": "++ (tumor stasis T/C ≦ 25%)"}, {"measurement": "activity rating", "setting": "[4]; 300 mg/kg/day i.p., days 1, 4, 8, 11, 15, 18, 22", "value": "++ (tumor stasis T/C ≦ 25%)"}, {"measurement": "tumor growth (relative tumor volume) compared to the vehicle control (in words)", "setting": "[4]", "value": "significantly inhibited the tumor growth"}, {"measurement": "anti-tumor activity (in words)", "setting": "[4]; dosage of 100 mg/kg up to 300 mg/kg, FIG. 1 and FIG. 3", "value": "very high anti-tumor activity"}, {"measurement": "reduction of body weight (in words)", "setting": "[6]", "value": "without any significant reduction of body weight"}]}
{"smiles": "c1ccc(-c2c(-c3[nH]c4ccccc4c3-c3ccccc3)[nH]c3ccccc23)cc1", "note": "[Example 14, Bis(3-phenylindol-2-yl)]", "values": [{"measurement": "IC50", "setting": "HT29X (colon); Homo sapiens", "value": 1.6, "unit": "µM"}, {"measurement": "IC70 colony formation", "setting": "HT29X (colon)", "value": 3.4, "unit": "µM"}, {"measurement": "IC70 colony formation", "setting": "[7]", "value": 6.7, "unit": "µM"}, {"measurement": "IC50", "setting": "[7]; [11]", "value": 4.7, "unit": "µM"}, {"measurement": "IC70 colony formation", "setting": "CXF280 (colon)", "value": 7.2, "unit": "µM"}, {"measurement": "IC50", "setting": "CXF280 (colon); [11]", "value": "< 1", "unit": "µM"}, {"measurement": "IC70 colony formation", "setting": "MX1 (mammary)", "value": 4.8, "unit": "µM"}, {"measurement": "IC50", "setting": "MX1 (mammary); [11]", "value": 2.8, "unit": "µM"}, {"measurement": "IC70 colony formation", "setting": "BXF1299 (bladder)", "value": 6.2, "unit": "µM"}, {"measurement": "IC50", "setting": "BXF1299 (bladder); [11]", "value": 2.7, "unit": "µM"}, {"measurement": "activity rating", "setting": "[4]; 10 mg/kg/day i.p., days 1-5, 8-12", "value": "− (inactive T/C > 50%)"}, {"measurement": "activity rating", "setting": "[4]; 100 mg/kg/day i.p., days 1-5, 8-12", "value": "+ (tumor inhibition T/C > 25-50%)"}, {"measurement": "activity rating", "setting": "[4]; 300 mg/kg/day i.p., days 1-5, 8-12", "value": "+ (tumor inhibition T/C > 25-50%)"}]}
